For this assay, the target named is T1, KSP motor domain (Homo sapiens, UniProt P52732).
T1 sequence (P52732 18-359 limits assumed): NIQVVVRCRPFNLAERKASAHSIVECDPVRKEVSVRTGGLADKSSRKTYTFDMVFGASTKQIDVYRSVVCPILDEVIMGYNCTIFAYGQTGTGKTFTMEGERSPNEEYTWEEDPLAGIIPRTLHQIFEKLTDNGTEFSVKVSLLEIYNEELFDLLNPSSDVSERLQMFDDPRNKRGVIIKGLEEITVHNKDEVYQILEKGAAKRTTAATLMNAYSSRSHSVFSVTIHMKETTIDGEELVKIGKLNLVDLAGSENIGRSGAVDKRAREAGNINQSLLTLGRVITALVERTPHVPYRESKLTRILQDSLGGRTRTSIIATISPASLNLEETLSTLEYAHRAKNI
Nature of the assay: biochemical.

[1] abbreviates: KSP inhibitory activity, end-point assay, class symbols (Table 1), read-out: IC50.
Setting [2] is: exact IC50 values, end-point assay (Table 2), read-out: IC50.

Like-named read-outs stand apart in the source and are kept apart here. A value given as a limit tells only on which side of the number the result lay.

Broadly, the IC50 is the concentration at which inhibition is half-maximal. As for `CC(C)(C)C1CCc2nc3sc(S)nc3cc2C1` (stereo not shown) [Example 128, 7-tert-Butyl-5,6,7,8-tetrahydrothiazolo[5,4-b]quinoline-2-thiol], the IC50 under setting [1] lay within 100 to 1000 nM. On the same count and under the same terms, to `CSc1nc2cc3c(nc2s1)CCC(C(C)(C)C)C3` (stereo not shown) [Example 129, 7-tert-butyl-2-methylsulfanyl-5,6,7,8-tetrahydrothiazolo[5,4-b]quinoline] belongs > 10000 nM; to `CC(C)(C)C1CCc2nc3sc(C#N)nc3cc2C1` (stereo not shown) [Example 130, 7-tert-Butyl-5,6,7,8-tetrahydrothiazolo[5,4-b]quinoline-2-carbonitrile], 1000 to 10000 nM; to `CC(C)(C)C1CCc2nc3sc(C(N)=O)nc3cc2C1` (stereo not shown) [Example 131, 7-tert-Butyl-5,6,7,8-tetrahydrothiazolo[5,4-b]quinoline-2-carboxylic acid amide], 100 to 1000 nM. Same read-out and setting: under `CC(C)(C)C1CCc2nc3sc(NC(N)=O)nc3cc2C1` (stereo not shown) [Example 132, (7-tert-Butyl-5,6,7,8-tetrahydrothiazolo[5,4-b]quinolin-2-yl)-urea] stands 1000 to 10000 nM; under `CC(C)(C)C1CCc2nc3sc(N)nc3cc2C1` (stereo not shown) [Example 133, 7-tert-Butyl-5,6,7,8-tetrahydrothiazolo[5,4-b]quinolin-2-ylamine], > 10000 nM. `CC(C)(C)C1CCc2nc3sc(NC=O)nc3cc2C1` (stereo not shown) [Example 134, N-(7-tert-Butyl-5,6,7,8-tetrahydrothiazolo[5,4-b]quinolin-2-yl)-formamide]: the “IC50 (nM)” value (KSP inhibitory activity, end-point assay, class symbols (Table 1)) was “B/C”. In the case of `CC(=O)Nc1nc2cc3c(nc2s1)CCC(C(C)(C)C)C3` (stereo not shown) [Example 135, N-(7-tert-Butyl-5,6,7,8-tetrahydrothiazolo[5,4-b]quinolin-2-yl)acetamide], the IC50 under setting [1] lay within 100 to 1000 nM.

Regarding `CC(C)(C)C1CCc2nc3sc(CO)cc3cc2C1` (stereo not shown) [Example 144], the IC50 was < 100 nM under setting [1] and 60 nM under setting [2]. `CC(C)(C)C1CCc2nc3sc(CCl)cc3cc2C1` (stereo not shown) [Example 145]: the IC50 under setting [1] was in the range of 100 to 1000 nM. Same read-out and setting: to `COCc1cc2cc3c(nc2s1)CCC(C(C)(C)C)C3` (stereo not shown) [Example 146] belongs 1000 to 10000 nM.

The molecule `CC(C)(C)C1CCc2nc3sc(COC(N)=O)cc3cc2C1` (stereo not shown) [Example 147] showed an IC50 (IC50 (nM), KSP inhibitory activity, end-point assay, class symbols (Table 1)) of 1000 to 10000 nM. Turning to `CC(C)(C)C1CCc2nc3sc(CC#N)cc3cc2C1` (stereo not shown) [Example 148], the IC50 under setting [1] lay in the range of 1000 to 10000 nM.

`CC(C)(C)C1CCc2nc3sc(CC(N)=O)cc3cc2C1` (stereo not shown) [Example 149]: the IC50 under setting [1] fell in the range of 1000 to 10000 nM. Still for that read-out and setting: to `CC(C)(C)C1CCc2nc3sc(CNCc4cc5cc6c(nc5s4)CCC(C(C)(C)C)C6)cc3cc2C1` (stereo not shown) [Example 150] belongs 1000 to 10000 nM. Turning to `CNCc1cc2cc3c(nc2s1)CCC(C(C)(C)C)C3` (stereo not shown) [Example 151], the IC50 under setting [1] was 1000 to 10000 nM.

Consider `CN(C)Cc1cc2cc3c(nc2s1)CCC(C(C)(C)C)C3` (stereo not shown) [Example 152], for which the IC50 under setting [1] lay in the range of 1000 to 10000 nM. The same measure, in the same setting: to `CC(C)(C)C1CCc2nc3sc(CN)cc3cc2C1` (stereo not shown) [Example 153] belongs 1000 to 10000 nM. Turning to `CC(=O)NCc1cc2cc3c(nc2s1)CCC(C(C)(C)C)C3` (stereo not shown) [Example 154], the IC50 under setting [1] was in the range of 1000 to 10000 nM.

For `CC(C)(C)C1CCc2nc3sc(CNC(=O)C4CC4)cc3cc2C1` (stereo not shown) [Example 155], the IC50 under setting [1] was 1000 to 10000 nM.

In the case of `CC(C)(C)C1CCc2nc3sc(CNC(N)=O)cc3cc2C1` (stereo not shown) [Example 156], the IC50 under setting [1] was 100 to 1000 nM. Still for that read-out and setting: under `CC(C)[C@@H](CO)NC(=O)c1cc2cc3c(nc2s1)CCC(C(C)(C)C)C3` (stereo partly drawn) [Example 157, 6-tert-Butyl-5,6,7,8-tetrahydrothieno[2,3-b]quinoline-2-carboxylic acid [(1S)-1-hydroxymethyl-2-methyl-propyl]amide] stands > 10000 nM.

As for `CC[C@@H](CO)NC(=O)c1cc2cc3c(nc2s1)CCC(C(C)(C)C)C3` (stereo partly shown) [Example 158], the IC50 under setting [1] is > 10000 nM. The same measure, in the same setting: under `CC(C)(C)C1CCc2nc3sc(C(=O)N[C@H](CO)Cc4ccccc4)cc3cc2C1` (stereo partly shown) [Example 159] stands > 10000 nM. Take `CC(C)(C)C1CCc2nc3sc(C(=O)N[C@H](CO)c4ccccc4)cc3cc2C1` (stereo partly shown) [Example 160]: the IC50 under setting [1] was 1000 to 10000 nM. Same read-out and setting: to `CC(C)(C)C1CCc2nc3sc(C(=O)N[C@H](CO)Cc4ccc(O)cc4)cc3cc2C1` (stereo partly drawn) [Example 161, 6-tert-Butyl-5,6,7,8-tetrahydrothieno[2,3-b]quinoline-2-carboxylic acid [2-hydroxy-(1S)-1-(4-hydroxybenzyl)ethyl]amide] belongs > 10000 nM. On the same count and under the same terms, to `CC(C)[C@@H](C#N)NC(=O)c1cc2cc3c(nc2s1)CCC(C(C)(C)C)C3` (stereo partly drawn) [Example 162, 6-tert-Butyl-5,6,7,8-tetrahydrothieno[2,3-b]quinoline-2-carboxylic acid [(1S)-1-cyano-2-methylpropyl]amide] belongs > 10000 nM.

For the molecule `CC(C)(C)C1CCc2nc3sc(C(=O)N[C@H](C#N)Cc4ccccc4)cc3cc2C1` (stereo partly drawn) [Example 163, 6-tert-Butyl-5,6,7,8-tetrahydrothieno[2,3-b]quinoline-2-carboxylic acid [(1S)-1-cyano-2-phenylethyl)amide], under setting [1], the IC50 is > 10000 nM.

For the molecule `CC(C)(C)C1CCc2nc3sc(C(=O)N[C@H](C#N)Cc4ccc(O)cc4)cc3cc2C1` (stereo partly shown) [Example 164], the IC50 under setting [1] was in the range of 100 to 1000 nM.

On to `CC(C)(C)C1CCc2nc3sc(C(=O)N[C@H](C#N)c4ccccc4)cc3cc2C1` (stereo partly shown) [Example 165], for which, under setting [1], the IC50 is > 10000 nM. For the molecule `CC[C@@H](C#N)NC(=O)c1cc2cc3c(nc2s1)CCC(C(C)(C)C)C3` (stereo partly drawn) [Example 166, 6-tert-Butyl-5,6,7,8-tetrahydrothieno[2,3-b]quinoline-2-carboxylic acid [(1S)-1-cyanopropyl)amide], the IC50 under setting [1] is > 10000 nM. Regarding `CC(C)(C)C1CCc2nc3sc(C(=O)NCC#N)cc3cc2C1` (stereo not shown) [Example 167, 6-tert-Butyl-5,6,7,8-tetrahydrothieno[2,3-b]quinoline-2-carboxylic acid cyanomethyl-amide], the IC50 under setting [1] was 100 to 1000 nM.

As for `CC(C)(C)C1CCc2nc3sc(C(=O)NCC(=N)N)cc3cc2C1` (stereo not shown) [Example 168, 6-tert-Butyl-5,6,7,8-tetrahydrothieno[2,3-b]quinoline-2-carboxylic acid carbamimidoylmethylamide], the IC50 is, setting by setting: under setting [1], < 100 nM; under setting [2], 8 nM. Take `C[C@H](NC(=O)c1cc2cc3c(nc2s1)CCC(C(C)(C)C)C3)C(=N)N` (stereo partly shown) [Example 169]: the IC50 under setting [1] is < 100 nM. The same measure, in the same setting: under `CC[C@H](NC(=O)c1cc2cc3c(nc2s1)CCC(C(C)(C)C)C3)C(=N)N` (stereo partly shown) [Example 170] stands 100 to 1000 nM; under `CC(C)[C@H](NC(=O)c1cc2cc3c(nc2s1)CCC(C(C)(C)C)C3)C(=N)N` (stereo partly shown) [Example 171], 1000 to 10000 nM. On the same count and under the same terms, under `CC(C)(C)C1CCc2nc3sc(C(=O)N[C@H](C(=N)N)c4ccccc4)cc3cc2C1` (stereo partly shown) [Example 172] stands 100 to 1000 nM. On the same count and under the same terms, to `CC(C)(C)C1CCc2nc3sc(C(=O)N[C@@H](Cc4ccccc4)C(=N)N)cc3cc2C1` (stereo partly shown) [Example 173] belongs 1000 to 10000 nM. On to `CC(C)(C)C1CCc2nc3sc(C(=O)N[C@@H](Cc4ccc(O)cc4)C(=N)N)cc3cc2C1` (stereo partly shown) [Example 174], for which, under setting [1], the IC50 was in the range of 1000 to 10000 nM. Still for that read-out and setting: under `CC(C)[C@@H](CN)NC(=O)c1cc2cc3c(nc2s1)CCC(C(C)(C)C)C3` (stereo partly drawn) [Example 175, 6-tert-butyl-5,6,7,8-tetrahydrothieno[2,3-b]quinoline-2-carboxylic acid [(1S)-1-aminomethyl-2-methylpropyl)amide] stands 1000 to 10000 nM. Turning to `C[C@@H](CN)NC(=O)c1cc2cc3c(nc2s1)CCC(C(C)(C)C)C3` (stereo partly shown) [Example 176], the IC50 under setting [1] was < 100 nM.

These data come from patent US20060247320A1, “Compounds for inhibiting KSP kinesin activity” (priority 2005, published 2006).
